{"source": "patent US20090197929A1", "about": "“Azolylmethyloxiranes, Their Use for Controlling Phytopathogenic Fungi and Agents Containing Said Compounds” (BASF SE, priority 2006, published 2009)", "key": {"[1]": {"test_system": "Pyrenophora teres", "assay": "Activity against net blotch of barley caused by Pyrenophora teres at 1 day protective application (Pyrnte P1)", "assay_type": "in vivo, Pyrenophora [syn. Drechslera] teres on barley", "details": "250 ppm active compound, potted barley seedlings sprayed to runoff, inoculated after 24 hours, assessed after 6 days; untreated plants 90% infected", "procedure": "The active compounds were prepared separately or jointly as a stock solution comprising 25 mg of active compound which was made up to 10 ml using a mixture of acetone and/or DMSO and the emulsifier Wettol EM 31 (wetting agent having emulsifying and dispersing action based on ethoxylated alkylphenols) in a volume ratio of solvent/emulsifier of 99:1. The mixture was then made up to 100 ml with water. This stock solution was diluted with the solvent/emulsifier/water mixture described to give the concentration of active compound stated below. Leaves of potted barley seedlings were sprayed to runoff point with an aqueous suspension having the active compound concentration stated below. 24 hours after the spray coat had dried on, the test plants were inoculated with an aqueous spore suspension of Pyrenophora [syn. Drechslera] teres, the net blotch pathogen. The test plants were then placed in a greenhouse at temperatures between 20 and 24° C. and at 95 to 100% relative atmospheric humidity. After 6 days, the extent of the development of the disease was determined visually in % infection of the entire leaf area."}, "[2]": {"test_system": "Puccinia recondita", "assay": "Protective activity against Puccinia recondita on wheat (brown rust of wheat) (Puccrt P1)", "assay_type": "in vivo", "details": "250 ppm active compound, potted wheat seedlings sprayed to runoff, inoculated next day; untreated plants 90% infected", "procedure": "The active compounds were prepared separately or jointly as a stock solution comprising 25 mg of active compound which was made up to 10 ml using a mixture of acetone and/or DMSO and the emulsifier Wettol EM 31 (wetting agent having emulsifying and dispersing action based on ethoxylated alkylphenols) in a volume ratio of solvent/emulsifier of 99:1. The mixture was then made up to 100 ml with water. This stock solution was diluted with the solvent/emulsifier/water mixture described to give the concentration of active compound stated below. Leaves of potted wheat seedlings were sprayed to runoff point with an aqueous suspension having the active compound concentration stated below. The next day, the treated plants were inoculated with a spore suspension of brown rust of wheat (Puccinia recondita). The plants were then placed in a chamber with high atmospheric humidity (90 to 95%) at 20 to 22° C. for 24 hours. During this time, the spores germinated and the germ tubes penetrated into the leaf tissue. The next day, the test plants were returned to the greenhouse and cultivated at temperatures between 20 and 22° C. and at 65 to 70% relative atmospheric humidity for a further 7 days. The extent of the rust fungus development on the leaves was then determined visually."}}, "data": [{"smiles": "Fc1ccc([C@@]2(Cn3cncn3)O[C@@H]2c2cc(Cl)sc2Cl)cc1", "note": "(racemic) [1-{[(2SR,3RS)-3-(2,5-dichlorothiophen-3-yl)-2-(4-fluorophenyl)oxiran-2-yl]methyl}-1H-1,2,4-triazole]", "values": [{"measurement": "infection (% infection of the entire leaf area, determined visually)", "setting": "[1]", "value": 15, "unit": "%"}, {"measurement": "infection (extent of rust fungus development on the leaves, determined visually)", "setting": "[2]", "value": 0, "unit": "%"}]}]}
